Where a name gives a salt, the structure may show the parent alone. The source made the active and inactive calls. The rule behind the calls is not given here.
Tests used:
Carbonic anhydrase 9 = Carbonic anhydrase 9 (Homo sapiens, UniProt Q16790); test: Inhibition of human CA9 pre-incubated for 15 mins by stopped-flow CO2 hydration method
Oryctolagus cuniculus [1] = test: Antiglaucoma activity in carbomer-induced glaucoma in albino rabbit assessed as reduction in intra ocular pressure dosed as 2% compound solution; assay type: functional, organism-based; conditions: Eye, TDE = time-dependent effect
Oryctolagus cuniculus [2] = test: Antiglaucoma activity in carbomer-induced glaucoma in albino rabbit assessed as reduction in intra ocular pressure dosed as 2% compound solution measured 2 hrs post dose (vehicle treated contralateral eye Rvb = 37 to 39 mmHg); assay type: functional
Oryctolagus cuniculus [3] = test: Antiglaucoma activity in carbomer-induced glaucoma in albino rabbit assessed as reduction in intra ocular pressure dosed as 2% compound solution measured 3 to 4 hrs post dose; assay type: functional, organism-based; conditions: Eye
Oryctolagus cuniculus [4] = test: Antiglaucoma activity in carbomer-induced glaucoma in albino rabbit assessed as reduction in intra ocular pressure dosed as 2% compound solution measured 2 hrs post dose (vehicle treated contralateral eye Rvb = 37 to 40 mmHg); assay type: functional
Carbonic anhydrase 12 = Carbonic anhydrase 12 (Homo sapiens, UniProt O43570); test: Inhibition of human CA12 pre-incubated for 15 mins by stopped-flow CO2 hydration method
Carbonic anhydrase 2 = Carbonic anhydrase 2 (Homo sapiens, UniProt P00918); test: Inhibition of human CA2 pre-incubated for 15 mins by stopped-flow CO2 hydration method
Carbonic anhydrase 1 = Carbonic anhydrase 1 (Homo sapiens, UniProt P00915); test: Inhibition of human CA1 pre-incubated for 15 mins by stopped-flow CO2 hydration method
Chain of Carbonic anhydrase 1 (P00915 whole entry): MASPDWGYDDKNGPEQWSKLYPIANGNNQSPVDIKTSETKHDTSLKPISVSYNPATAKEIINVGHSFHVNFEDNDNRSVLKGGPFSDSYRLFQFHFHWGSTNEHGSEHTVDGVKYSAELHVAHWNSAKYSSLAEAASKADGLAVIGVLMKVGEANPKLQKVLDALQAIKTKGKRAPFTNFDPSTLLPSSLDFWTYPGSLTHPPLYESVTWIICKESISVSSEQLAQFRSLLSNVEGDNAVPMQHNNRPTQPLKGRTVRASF

Chain of Carbonic anhydrase 12 (O43570 whole entry): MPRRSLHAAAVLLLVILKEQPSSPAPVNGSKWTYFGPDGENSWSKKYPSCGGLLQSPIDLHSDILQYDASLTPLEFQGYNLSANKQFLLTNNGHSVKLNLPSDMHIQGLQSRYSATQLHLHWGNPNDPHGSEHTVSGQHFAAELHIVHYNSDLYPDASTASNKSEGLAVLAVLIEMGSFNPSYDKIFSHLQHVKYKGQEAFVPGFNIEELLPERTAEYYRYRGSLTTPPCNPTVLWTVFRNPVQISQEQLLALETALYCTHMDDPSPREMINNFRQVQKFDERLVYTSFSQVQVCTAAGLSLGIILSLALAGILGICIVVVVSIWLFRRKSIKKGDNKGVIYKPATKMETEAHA

SMILES | Ki (Carbonic anhydrase 9) | further results
S=C(S)Nc1ccccc1 [TRIETHYLAMMONIUM PHENYLCARBAMODITHIOATE] | 4.2 nM | –
CN(Cc1ccccc1)C(=S)S [SODIUM BENZYL(METHYL)CARBAMODITHIOATE] | 53 nM | –
N#CC1(c2ccccc2)CCN(C(=S)S)CC1 | 757 nM | –
S=C(S)NCCN1CCOCC1 | 4.5 nM | –
S=C(S)NCCN(CCNC(=S)S)CCNC(=S)S | 27.4 nM | –
O=C(O)CNC(=S)S | 57.1 nM | –
S=C([S-])N1CCN(C(=S)[S-])CC1.[Na+].[Na+] [PIPERAZINECARBAMODITHIOATE DISODIUM SALT] | 37.5 nM | Activity (Oryctolagus cuniculus [1]): tde; Activity (Oryctolagus cuniculus [2]): 6 mmHg; Activity (Oryctolagus cuniculus [3]): Active
S=C(S)NCCCn1ccnc1 | 4.3 nM | –
S=C(S)NCc1ccncc1 | 26 nM | –
S=C(S)NCCN1CCCCC1 | 3.6 nM | –
CCC(C)NC(=S)S (racemic) | 4.6 nM | –
CCCCN(CCCC)C(=S)S [DIBUTYLCARBAMODITHIOATE SODIUM SALT] | 50.3 nM | –
O=C(O)[C@@H]1CCCN1C(=S)S | 4.1 nM | –
CN(C(=S)S)c1ccccc1 [SODIUM METHYL(PHENYL)CARBAMODITHIOATE] | 28.2 nM | –
CCCCN(CC)C(=S)S [ETHYLBUTYLCARBAMODITHIOATE SODIUM SALT] | 25.9 nM | –
S=C([S-])N1CCOCC1.[Na+] [MORPHOLINECARBAMODITHIOATE SODIUM SALT] | 6.2 nM | Activity (Oryctolagus cuniculus [4]): 6 mmHg; Activity (Oryctolagus cuniculus [1]): tde; Activity (Oryctolagus cuniculus [3]): Active
OCCN(CCO)C(=S)S | 4.3 nM | –
S=C(S)Nc1nccs1 | 12.6 nM | –
CCCN(CCC)C(=S)S [DIPROPYLCARBAMODITHIOATE SODIUM SALT] | 53.8 nM | –
CCN(CC)C(=S)S [DITIOCARB SODIUM] | 1410 nM | Ki (Carbonic anhydrase 12): 1100 nM
S=C(S)N1CCCC1 | 70.4 nM | Ki (Carbonic anhydrase 2): 27.5 nM; Ki (Carbonic anhydrase 12): 46.1 nM; Ki (Carbonic anhydrase 1): 0.96 nM
CCCCCCN(CCCCCC)C(=S)S [DIHEXYLCARBAMODITHIOATE SODIUM SALT] | 27.4 nM | –
CC(C)CN(CC(C)C)C(=S)S [DIISOBUTYLCARBODITHIOIC ACID SODIUM SALT] | 4.5 nM | –
S=C(S)NCc1ccccc1 [SODIUM BENZYLCARBAMODITHIOATE] | 19.2 nM | –
CN1CCN(NC(=S)S)CC1 | 22.1 nM | –
CN(C)C(=S)S [SODIUM DIMETHYLCARBAMODITHIOATE] | 714 nM | Ki (Carbonic anhydrase 2): 6910 nM; Ki (Carbonic anhydrase 12): 798 nM; Ki (Carbonic anhydrase 1): 699 nM
S=C(S)NN1CCOCC1 [POTASSIUM MORPHOLINOCARBAMODITHIOATE] | 29.1 nM | –

— ChEMBL document CHEMBL2021877, “Dithiocarbamates strongly inhibit carbonic anhydrases and show antiglaucoma action in vivo” (J Med Chem, 2012)
